Assay results from PMC2884014 (Biochemistry, 2010).
Like-named read-outs stand apart in the source and are kept apart here.

Legend:
Type in all cases: biochemical
[1] = target: T1, MurA (UDP-N-acetylglucosamine 1-carboxyvinyltransferase) (Enterobacter cloacae, UniProt P33038); test: crystal structure at […] Å
[2] = target: T1, MurA (UDP-N-acetylglucosamine 1-carboxyvinyltransferase); test: crystal structure at […] Å; remark: listed apart in the source
[3] = target: MurA (UDP-N-acetylglucosamine 1-carboxyvinyltransferase) (Escherichia coli, UniProt P0A749); test: malachite green assay of residual MurA activity
MurA (UDP-N-acetylglucosamine 1-carboxyvinyltransferase) (Escherichia coli, UniProt P0A749), sequence (P0A749 whole entry): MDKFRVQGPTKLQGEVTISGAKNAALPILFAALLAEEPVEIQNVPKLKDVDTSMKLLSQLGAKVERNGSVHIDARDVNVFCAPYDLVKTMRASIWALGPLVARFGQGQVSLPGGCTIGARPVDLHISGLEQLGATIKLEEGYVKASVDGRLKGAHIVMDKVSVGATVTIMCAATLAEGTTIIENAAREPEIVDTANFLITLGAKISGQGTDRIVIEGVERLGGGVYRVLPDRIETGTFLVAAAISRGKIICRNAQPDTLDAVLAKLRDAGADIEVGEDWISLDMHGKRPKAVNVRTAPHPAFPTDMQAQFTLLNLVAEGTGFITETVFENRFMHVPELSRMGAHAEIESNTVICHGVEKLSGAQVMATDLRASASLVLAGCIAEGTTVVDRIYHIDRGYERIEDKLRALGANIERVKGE

T1 sequence (P33038 whole entry): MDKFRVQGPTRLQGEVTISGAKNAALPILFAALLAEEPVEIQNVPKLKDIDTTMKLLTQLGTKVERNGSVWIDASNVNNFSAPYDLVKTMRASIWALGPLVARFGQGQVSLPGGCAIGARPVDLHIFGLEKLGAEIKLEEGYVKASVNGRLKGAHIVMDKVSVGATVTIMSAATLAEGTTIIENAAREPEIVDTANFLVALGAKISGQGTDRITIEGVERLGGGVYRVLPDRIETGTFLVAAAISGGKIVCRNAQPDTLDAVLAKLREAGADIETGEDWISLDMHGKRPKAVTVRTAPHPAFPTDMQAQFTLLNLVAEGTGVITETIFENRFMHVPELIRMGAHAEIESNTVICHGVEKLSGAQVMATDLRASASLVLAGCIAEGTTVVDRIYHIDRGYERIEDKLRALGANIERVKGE

| SMILES | IC50 [1] | IC50 [2] | malachite green assay of residual MurA activity [3] |
| --- | --- | --- | --- |
| C[C@@H]1O[C@@H]1P(=O)(O)O [fosfomycin, (1R,2S)-1,2-epoxypropyl phosphonic acid] | 0.25 ± 0.01 µM |  |  |
| CC1=C(O)C(=O)[C@@H]2O[C@@H]2C1=O [terreic acid] |  | 14 ± 0.6 µM | terreic acid is a covalent inhibitor of the bacterial cell wall biosynthetic enzyme MurA from E. cloacae and E. coli in-vitro |
